Structures can show the parent of a compound that is named as a salt.
Key:
DNA-PK = DNA-PK (Homo sapiens (Human), UniProt P78527); experiment: DNA-PK Enzyme-Linked Immunosorbent Assay (phosphorylation of GST-p53 (1-101) peptide); format: biochemical; settings: ELISA
Experimental: Assay of Compounds ATM and DNA-PK Inhibition
remove wash solution, turn plate upside down onto a thin paper towel and centrifuge at 1000 rpm for 1 min to absorb all wash buffer. Clean the bottom of plate with moist lint free paper. Scan plate immediately using ODYSSEY CLx (LI-COR) for the best results. DNA-PK Enzyme-Linked Immunosorbent Assay:
On day one, coat 96-well plate (ThermoFisher. Cat #: 442404) with GST-p53 (1-101) peptide (purified by Pharmaron, BCS department) by diluting 3 μg of GST-p53 each well with 0.1 M Na2CO3/NaHCO3, pH 9.6. Incubate the plate overnight at 4° C. The second day, remove coating buffer, wash 2× with PBST (1×PBS containing 0.1% Tween-20). Then add DNA-PK enzyme solution (Invitrogen, #PR9107A; the final DNA-PK concentration is 0.1 μg/mL), series dilution compounds (the final top concentration is 100 nM, 3 fold series dilution, with total 10 doses) and ATP solution (the final ATP concentration is 20 μM) to the 96-well plate. Incubate the plate at 25° C. for 1 hour. Then wash 3× with PBST (1×PBS containing 0.1% Tween-20). Block the plate with PBST+ 1% BSA at 4° C. overnight. The third day, wash 4× with PBST (1×PBS containing 0.1% Tween-20). Then add Phospho-p53 primary antibody (cell signaling Technology, #9286, Phospho-p53 (Ser15) (16G8) Mouse mAb) (1/1000) to each well. Seal with plate and incubate the plate for 1 h at 37° C. Wash 4× with PBST (1×PBS containing 0.1% Tween-20), add 100 μL of HRP-linked secondary antibody (Cell signaling Technology, #7076, Anti-mouse IgG, HRP-linked Antibody) (1/1000) to each well. Seal with tape and incubate the plate for 30 min at 37° C. Wash 4× with PBST (1×PBS containing 0.1% Tween-20), add 100 μL of TMB (Cell signaling Technology, #7004) substrate to each well. Seal with tape and incubate the plate for 10 min at 37° C. Then add 100 μL of Stop solution (Cell signaling Technology, #7002) to each well. Read the plate at 450 nm to detect absorption.

ATM = ATM (Homo sapiens (Human), UniProt Q13315); experiment: ATM in Cell Western Assay (pKAP1 in etoposide-treated MCF-7 cells); format: cell-based
How it was run: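 After paraformaldehyde fixation and Triton X-100 permeabilization, immunostained plates were read by infrared scanning (ODYSSEY CLx). Compound was given as 10 doses, 3-fold dilutions from a 1 μM final top concentration.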

[1] = MCF-7 cells, etoposide 100 μM, 1 hr, pKAP1 readout
[2] = pKAP1 in etoposide-treated MCF-7 cells

Chain of ATM (Q13315 whole entry): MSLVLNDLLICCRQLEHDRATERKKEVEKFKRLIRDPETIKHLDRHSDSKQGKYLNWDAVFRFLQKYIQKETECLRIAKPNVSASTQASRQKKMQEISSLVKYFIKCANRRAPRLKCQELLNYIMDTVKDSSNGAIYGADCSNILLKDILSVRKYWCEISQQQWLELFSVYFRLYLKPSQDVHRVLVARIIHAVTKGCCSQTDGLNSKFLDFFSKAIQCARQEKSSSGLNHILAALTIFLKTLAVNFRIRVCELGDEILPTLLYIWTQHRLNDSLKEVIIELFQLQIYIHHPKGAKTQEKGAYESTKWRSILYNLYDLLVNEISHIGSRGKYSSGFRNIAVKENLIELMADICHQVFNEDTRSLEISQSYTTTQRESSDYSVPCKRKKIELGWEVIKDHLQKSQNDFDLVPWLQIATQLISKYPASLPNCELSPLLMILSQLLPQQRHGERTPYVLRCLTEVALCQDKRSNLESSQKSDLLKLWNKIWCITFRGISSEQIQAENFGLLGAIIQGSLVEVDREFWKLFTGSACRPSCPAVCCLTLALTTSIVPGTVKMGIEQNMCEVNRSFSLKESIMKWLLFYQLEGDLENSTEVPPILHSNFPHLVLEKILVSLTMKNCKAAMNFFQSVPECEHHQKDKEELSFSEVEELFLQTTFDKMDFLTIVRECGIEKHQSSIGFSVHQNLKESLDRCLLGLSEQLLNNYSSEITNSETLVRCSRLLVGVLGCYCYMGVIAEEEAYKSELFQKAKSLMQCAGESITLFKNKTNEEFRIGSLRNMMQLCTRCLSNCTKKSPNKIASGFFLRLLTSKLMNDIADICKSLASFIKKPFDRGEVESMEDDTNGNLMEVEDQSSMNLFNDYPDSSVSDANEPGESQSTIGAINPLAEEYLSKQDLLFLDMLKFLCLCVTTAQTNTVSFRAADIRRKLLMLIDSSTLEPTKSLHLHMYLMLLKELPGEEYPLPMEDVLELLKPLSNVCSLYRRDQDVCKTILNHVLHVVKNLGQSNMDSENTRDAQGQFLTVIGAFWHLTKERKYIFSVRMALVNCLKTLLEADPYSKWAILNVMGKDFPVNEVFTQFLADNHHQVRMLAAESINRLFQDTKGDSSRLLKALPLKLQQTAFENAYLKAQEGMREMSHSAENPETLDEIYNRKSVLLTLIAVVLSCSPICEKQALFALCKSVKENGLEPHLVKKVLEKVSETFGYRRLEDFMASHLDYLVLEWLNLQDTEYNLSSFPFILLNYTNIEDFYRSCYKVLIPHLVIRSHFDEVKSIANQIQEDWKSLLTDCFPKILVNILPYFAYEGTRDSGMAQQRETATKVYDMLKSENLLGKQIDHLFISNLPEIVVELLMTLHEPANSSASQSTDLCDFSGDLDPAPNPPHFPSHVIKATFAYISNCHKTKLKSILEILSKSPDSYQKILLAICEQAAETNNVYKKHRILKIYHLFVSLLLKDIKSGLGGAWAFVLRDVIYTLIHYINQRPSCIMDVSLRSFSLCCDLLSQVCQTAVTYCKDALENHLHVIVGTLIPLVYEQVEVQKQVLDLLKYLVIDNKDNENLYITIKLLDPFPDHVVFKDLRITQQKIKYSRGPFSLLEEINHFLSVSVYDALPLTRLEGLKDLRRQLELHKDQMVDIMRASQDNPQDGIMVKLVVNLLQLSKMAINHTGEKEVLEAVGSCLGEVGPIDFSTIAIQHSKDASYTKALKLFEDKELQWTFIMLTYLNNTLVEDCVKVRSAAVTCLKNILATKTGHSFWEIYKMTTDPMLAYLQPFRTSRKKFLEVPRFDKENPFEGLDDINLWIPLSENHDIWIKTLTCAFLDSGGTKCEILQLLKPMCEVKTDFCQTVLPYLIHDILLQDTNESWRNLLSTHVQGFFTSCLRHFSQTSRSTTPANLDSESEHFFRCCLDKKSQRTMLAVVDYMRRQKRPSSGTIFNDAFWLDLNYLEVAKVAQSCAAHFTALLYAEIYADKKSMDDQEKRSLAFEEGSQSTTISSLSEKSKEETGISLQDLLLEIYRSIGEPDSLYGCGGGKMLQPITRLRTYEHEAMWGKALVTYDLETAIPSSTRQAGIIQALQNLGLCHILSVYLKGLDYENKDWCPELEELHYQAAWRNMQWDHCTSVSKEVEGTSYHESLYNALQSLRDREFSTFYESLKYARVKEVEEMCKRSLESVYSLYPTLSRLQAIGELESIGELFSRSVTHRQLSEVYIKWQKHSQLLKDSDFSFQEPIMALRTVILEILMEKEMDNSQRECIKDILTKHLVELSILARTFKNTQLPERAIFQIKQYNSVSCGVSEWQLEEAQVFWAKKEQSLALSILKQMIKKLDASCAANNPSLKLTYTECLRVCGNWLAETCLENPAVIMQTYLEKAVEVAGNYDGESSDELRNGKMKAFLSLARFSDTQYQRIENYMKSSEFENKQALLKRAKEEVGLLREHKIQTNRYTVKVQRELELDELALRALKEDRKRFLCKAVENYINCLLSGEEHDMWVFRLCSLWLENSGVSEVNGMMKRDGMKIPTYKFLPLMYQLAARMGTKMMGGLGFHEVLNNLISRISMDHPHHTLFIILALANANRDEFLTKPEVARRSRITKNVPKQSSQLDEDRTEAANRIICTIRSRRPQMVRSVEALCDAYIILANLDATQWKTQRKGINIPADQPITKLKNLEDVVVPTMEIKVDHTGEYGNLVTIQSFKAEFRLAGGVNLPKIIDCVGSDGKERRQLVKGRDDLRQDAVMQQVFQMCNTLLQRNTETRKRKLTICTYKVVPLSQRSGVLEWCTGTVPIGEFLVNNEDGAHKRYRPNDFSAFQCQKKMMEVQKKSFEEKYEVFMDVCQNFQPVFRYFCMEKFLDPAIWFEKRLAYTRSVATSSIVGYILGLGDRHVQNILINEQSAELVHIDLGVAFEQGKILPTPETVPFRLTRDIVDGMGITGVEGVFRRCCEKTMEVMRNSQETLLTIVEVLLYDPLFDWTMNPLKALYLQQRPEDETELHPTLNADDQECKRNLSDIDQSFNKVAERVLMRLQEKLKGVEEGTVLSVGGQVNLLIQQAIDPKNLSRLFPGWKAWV

Row | Compound | IC50 (DNA-PK; ATP 20 μM) [nM] | IC50 (ATM; [1]) [nM] | IC50 (DNA-PK; 20 μM ATP) [nM] | IC50 (ATM; [2]) [nM]
1 | CNC1CN(c2ncc(-c3cc4c5c(cnc4cc3F)N(C)C(=O)C53CCC3)cc2NS(=O)(=O)N(C)C)C1 [Example 332, 8′-{5-[(Dimethylsulfamoyl)amino]-6-[3-(methylamino)azetidin-1-yl]pyridin-3-yl}-7′-fluoro-3′-methyl-2′,3′-dihydrospiro[cyclobutane-1,1′-pyrrolo[2,3-c]quinoline]-2′-one] | 1 to 100 | 1 to 100 | – | –
2 | CC(C)NCCOc1ncc(-c2cc3c(cc2F)ncc2c3[C@]3(C[C@H](COC(C)C)C3)C(=O)N2C)cc1NS(C)(=O)=O [Example 410, cis-N-(5-(7′-Fluoro-3-(isopropoxymethyl)-3′-methyl-2′-oxo-2′,3′-dihydrospiro[cyclobutane-1,1′-pyrrolo[2,3-c]quinolin]-8′-yl)-2-(2-(isopropylamino)ethoxy)pyridin-3-yl)methanesulfonamide] | – | – | < 0.5 | 1 to 100
3 | CC(C)NCCOc1ncc(-c2cc3c4c(cnc3cc2F)N(C)C(=O)C42CN(c3cccc(Cl)c3)C2)cc1NS(C)(=O)=O [Example 524, N-(5-(1-(3-Chlorophenyl)-7′-fluoro-3′-methyl-2′-oxo-2′,3′-dihydrospiro[azetidine-3,1′-pyrrolo[2,3-c]quinolin]-8′-yl)-2-(2-(isopropylamino)ethoxy)pyridin-3-yl)methanesulfonamide] | – | – | 1 to 100 | 1 to 100
4 | CC(C)NCCOc1ncc(-c2cc3c4c(cnc3cc2F)N(C)C(=O)C42CN(c3ccccc3)C2)cc1NS(C)(=O)=O [Example 519, N-(5-(7′-Fluoro-3′-methyl-2′-oxo-1-phenyl-2′,3′-dihydrospiro[azetidine-3,1′-pyrrolo[2,3-c]quinolin]-8′-yl)-2-(2-(isopropylamino)ethoxy)pyridin-3-yl)methanesulfonamide hydrochloride] | – | – | < 0.5 | 1 to 100
5 | CN(C)CCCOc1ncc(-c2ccc3ncc4c(c3c2)C2(CCC2)C(=O)N4C)cc1NS(=O)(=O)c1ccsc1 [Example 272, N-(2-(3-(Dimethylamino)propoxy)-5-(3′-methyl-2′-oxo-2′,3′-dihydrospiro [cyclobutane-1,1′-pyrrolo[2,3-c]quinolin]-8′-yl)pyridin-3-yl) thiophene-3-sulfonamide] | 1 to 100 | 0.5 to 1 | – | –
6 | Cc1ccc(S(=O)(=O)Nc2cc(-c3ccc4ncc5c(c4c3)C3(CCC3)C(=O)N5C)cnc2N2CCC(N3CCCCC3)CC2)cc1 [Example 192, N-(2-(1,4-Bipiperidin]-1′-yl)-5-(3′-methyl-2′-oxo-2′,3′-dihydrospiro[cyclobulane-1,1′-pyrrolo[2,3-c]quinolin]-8′-yl)pyridin-3-yl)-4-methylbenzenesulfonamide hydrochloride] | 1 to 100 | 1 to 100 | – | –
7 | CCN(C)S(=O)(=O)Nc1cc(-c2ccc3ncc4c(c3c2)C2(CCC2)C(=O)N4C)cnc1OCCCN1CCCCC1 [Example 222, 8′-(5-{[Ethyl(methyl)sulfamoyl]amino}-6-[3-(piperidin-1-yl)propoxy]pyridin-3-yl)-3′-methyl-2′,3′-dihydrospiro [cyclobutane-1,1′-pyrrolo[2,3-c]quinoline]-2′-one] | 1 to 100 | 1 to 100 | – | –
8 | CN(C)CCCOc1ncc(-c2ccc3ncc4c(c3c2)C2(CCC2)C(=O)N4C)cc1NS(=O)(=O)c1ccc(C(F)(F)F)nc1 [Example 146, N-(2-(3-(Dimethylamino)propoxy)-5-(3′-methyl-2′-oxo-2′,3′-dihydrospiro [cyclobulane-1,1′-pyrrolo[2,3-c]quinolin]-8′-yl)pyridin-3-yl)-6-(trifluoromethyl)pyridine-3-sulfonamide hydrochloride] | 1 to 100 | 1 to 100 | – | –
9 | CCCS(=O)(=O)Nc1cc(-c2ccc3ncc4c(c3c2)C2(CC2)C(=O)N4C)cnc1OCCCN(C)C [Example 77, N-(2-(3-(Dimethylamino)propoxy)-5-(3′-methyl-2′-oxo-2′,3′-dihydrospiro [cyclopropane-1,1′-pyrrolo [2,3-c]quinolin]-8′-yl)pyridin-3-yl)propane-1-sulfonamide] | 1 to 100 | 1 to 100 | – | –
10 | CC(C)NCCOc1ncc(-c2cc3c(cc2F)ncc2c3[C@]3(C[C@@H](c4ccncc4)C3)C(=O)N2C)cc1NS(C)(=O)=O [Example 439, trans-N-{5-(7′-Fluoro-3′-methyl-2′-oxo-3-(pyridin-4-yl)-2′,3′-dihydrospiro[cyclobutane-1,1′-pyrrolo[2,3-c]quinolin]-8′-yl)-2-(2-(isopropylamino)ethoxy)pyridin-3-yl)methanesulfonamide] | – | – | 1 to 100 | > 100
11 | COCCN(C)CCCOc1ncc(-c2cc3c4c(cnc3cc2F)N(C)C(=O)C42CCC2)cc1NS(=O)(=O)N1CCOCC1 [Example 294, N-(5-(7′-Fluoro-3′-methyl-2′-oxo-2′,3′-dihydrospiro[cyclobutane-1,1′-pyrrolo[2,3-c]quinolin]-8′-yl)-2-(3-((2-methoxyethyl)(methyl)amino)propoxy)pyridin-3-yl)morpholine-4-sulfonamide] | 1 to 100 | 1 to 100 | – | –

Second part, the molecule after the results:

Row | IC50 (DNA-PK; ATP 20 μM) [nM] | IC50 (ATM; [1]) [nM] | IC50 (DNA-PK; 20 μM ATP) [nM] | IC50 (ATM; [2]) [nM] | Compound
12 | < 0.5 | 1 to 100 | – | – | CN(C)CCCOc1ncc(-c2ccc3ncc4c(c3c2)C2(CCC2)C(=O)N4C)cc1NS(=O)(=O)c1ccc(O)cc1 [Example 220, N-(2-(3-(Dimethylamino)propoxy)-5-(3′-methyl-2′-oxo-2′,3′-dihydrospiro [cyclobutane-1,1′-pyrrolo[2,3-c]quinolin]-8′-yl)pyridin-3-yl)-4-hydroxybenzenesulfonamide hydrochloride]
13 | 1 to 100 | 1 to 100 | – | – | CN(C)CCCOc1ncc(-c2ccc3ncc4c(c3c2)C2(CCC2)C(=O)N4C)cc1NS(=O)(=O)c1ccccn1 [Example 148, N-(2-(3-(Dimethylamino)propoxy)-5-(3′-methyl-2-oxo-2′,3′-dihydrospiro[cyclobulane-1,1′-pyrrolo[2,3-c]quinolin]-8′-yl)pyridin-3-yl)pyridine-2-sulfonamide hydrochloride]
14 | 1 to 100 | 1 to 100 | – | – | CN1CCCC(COc2ncc(-c3ccc4ncc5c(c4c3)C3(CC3)C(=O)N5C)cc2NS(=O)(=O)c2ccccc2)C1 (centres unmarked) [Example 84, N-(5-(3′-Methyl-2′-oxo-2′,3′-dihydrospiro[cyclopropane-1,1′-pyrrolo[2,3-c]quinolin]-8′-yl)-2-((1-methylpiperidin-3-yl)methoxy)pyridin-3-yl)benzenesulfonamide]
15 | 1 to 100 | 1 to 100 | – | – | CN(C)CCCOc1ncc(-c2ccc3ncc4c(c3c2)C2(COC2)C(=O)N4C)cc1NS(=O)(=O)c1ccccc1 [Example 32, N-(2-(3-(Dimethylamino)propoxy)-5-(3′-methyl-2′-oxo-2′,3′-dihydrospiro[oxetane-3,1′-pyrrolo[2,3-c]quinolin]-8′-yl)pyridin-3-yl)benzenesulfonamide]
16 | < 0.5 | < 0.5 | – | – | CN1C(=O)C2(CC2)c2c1cnc1ccc(-c3cnc(OCCCN4CCCC4)c(NS(=O)(=O)c4ccccc4)c3)cc21 [Example 58, N-(5-(3′-Methyl-2′-oxo-2′,3′-dihydrospiro[cyclopropane-1,1′-pyrrolo[2,3-c]quinolin]-8′-yl)-2-(3-(pyrrolidin-1-yl)propoxy)pyridin-3-yl)benzenesulfonamide]
17 | < 0.5 | 1 to 100 | – | – | CN(C)CCCOc1ncc(-c2ccc3ncc4c(c3c2)C2(CCC2)C(=O)N4C)cc1NS(C)(=O)=O [Example 189, N-(2-(3-(Dimethylamino)propoxy)-5-(3′-methyl-2′-oxo-2′,3′-dihydrospiro [cyclobulane-1,1′-pyrrolo[2,3-c]quinolin]-8′-yl)pyridin-3-yl) methanesulfonamide]
18 | < 0.5 | 1 to 100 | – | – | COc1ncc(-c2ccc3ncc4c(c3c2)C2(CC2)C(=O)N4C)cc1NS(=O)(=O)c1cccc(Cl)c1 [Example 9, 3-Chloro-N-(2-methoxy-5-(3′-methyl-2′-oxo-2′,3′-dihydrospiro [cyclopropane-1,1′-pyrrolo[2,3-c]quinolin]-8′-yl)pyridin-3-yl)benzenesulfonamide]
19 | 0.5 to 1 | 1 to 100 | – | – | Cc1cc(S(=O)(=O)Nc2cc(-c3ccc4ncc5c(c4c3)C3(CCC3)C(=O)N5C)cnc2N2CCC(N(C)C)CC2)sn1 [Example 233, N-(2-(4-(Dimethylamino)piperidin-1-yl)-5-(3′-methyl-2′-oxo-2′,3′-dihydrospiro[cyclobutane-1,1′-pyrrolo[2,3-c]quinolin]-8′-yl)pyridin-3-yl)-3-methylisothiazole-5-sulfonamide]

Reference: US12187742B2 (XRAD Therapeutics, Inc., priority 2018, dated 2025)
